In article PMC9967645, “OAT3 Participates in Drug–Drug Interaction between Bentysrepinine and Entecavir through Interactions with M8—A Metabolite of Bentysrepinine—In Rats and Humans In Vitro” (Molecules, 2023):

Assays:
[1] = Pharmacokinetic DDI study in rats, intravenous Y101 and/or ETV; assay type: in vivo, Sprague–Dawley (SD) rats; settings: Sprague-Dawley, rat, plasma; for AUC(0-inf) / AUC(0-t) / C0 / Vd / half-life / Cmax / Tmax: n = 4; for clearance: n = 4, read-out: CLp (plasma clearance) (converted)
Protocol: (§1) Additionally, DDI between Y101 and ETV was investigated by monitoring time-course plasma Y101 in rats with surgery as described above. Animals were randomly placed into three groups (n = 4): (1) Y101 alone (25 mg/kg for intravenous treatment and 60 mg/kg for oral administration); (2) ETV (0.06 mg/kg); and (3) Y101 (25 mg/kg for intravenous treatment and 60 mg/kg for oral administration) + ETV (0.06 mg/kg). ETV was dissolved in saline at concentration of 12 µg/mL. Rats received an oral or intravenous dose of Y101 and/or ETV at volume of 5 mL/kg. The doses used in in vivo pharmacokinetic studies were selected in accordance with therapeutic doses of Y101 and ETV commonly used clinically and in previous studies.
(§2) Following administration, serial blood samples were collected through jugular vein pre-dose (0 h) and post-dose at 0.033, 0.083, 0.25, 0.5, 1, 1.5, 2, 3, 4, 6, 9, 12, 24 and 30 h in heparinized Eppendorf tubes. The resulting samples were centrifuged at 13,800× g at 4 °C for 5 min to obtain plasma. All plasma samples were stored at −70 °C until analysis.
(§3) Biological samples were prepared as previously described.
(§4) Non-compartmental analysis with Phenix WinNonlin (version 8.1; Pharsight, Certara Corp, Princeton, NJ) was used to calculate the main pharmacokinetic parameters of ETV, Y101, M8 and M9 for individual rats. The observed values were reported for maximum concentration (Cmax) and time to reach maximum concentration (Tmax), while the area under the plasma concentration–time curve (AUC) was calculated via the default trapezoidal-up, log-trapezoidal-down approach.

[2] = Pharmacokinetic DDI study in rats, oral Y101 and/or ETV; assay type: in vivo, Sprague–Dawley (SD) rats; settings: Sprague-Dawley, rat, plasma, n = 4
Protocol: as §1, §2, §3, §4

[3] = Pharmacokinetic study in rats, intravenous Y101 with or without PRO; assay type: in vivo, Sprague–Dawley (SD) rats; settings: for Vd / half-life / clearance / AUC(0-inf) / AUC(0-t) / C0 / Tmax / Cmax: male, Sprague-Dawley, rat, plasma, iv, 25 mg/kg; for Vd / half-life / AUC(0-inf) / AUC(0-t) / C0 / Tmax / Cmax: n = 3; for clearance: n = 3, read-out: CLp (plasma clearance) (converted)
Protocol: The effect of PRO on the pharmacokinetics of Y101 was studied in rats. Male rats surgically prepared with indwelling jugular cannula were randomly divided into two groups (n = 3): (1) Y101 alone (25 mg/kg) as a control and (2) Y101 + PRO (25 mg/kg for Y101 and 100 mg/kg for PRO) as an experimental group. The intravenous dose of Y101 was prepared as previously described. Both Y101 and PRO were injected by caudal vein to rats at volume of 5 mL/kg.
as §2, §3, §4

[4] = set-up: method as in PMID 32277364; settings: healthy Chinese subjects, oral administration of Y101; cited from earlier work
[5] = i.v. Y101 25 mg/kg + ETV 0.06 mg/kg
[6] = oral Y101 60 mg/kg + ETV 0.06 mg/kg
[7] = i.v. Y101 25 mg/kg + PRO 100 mg/kg
[8] = i.v. Y101 25 mg/kg + PRO 100 mg/kg vs Y101 alone

SMILES	AUC(0-inf) [1, 5]	AUC(0-t) [1, 5]	C0 [1, 5]	AUC(0-inf) ([1]; i.v. Y101 25 mg/kg alone)	AUC(0-t) ([1]; i.v. Y101 25 mg/kg alone)	Vd [1, 5]	half-life [1, 5]	clearance [1, 5]	half-life ([1]; i.v. Y101 25 mg/kg alone)	AUC(0-inf) [2, 6]	AUC(0-t) [2, 6]	Cmax [2, 6]	AUC(0-inf) ([2]; oral Y101 60 mg/kg alone)	AUC(0-t) ([2]; oral Y101 60 mg/kg alone)	Cmax ([2]; oral Y101 60 mg/kg alone)	Tmax [2, 6]	half-life [2, 6]	Tmax ([2]; oral Y101 60 mg/kg alone)	half-life ([2]; oral Y101 60 mg/kg alone)	half-life [3, 7]	other results
CN(C)CCOc1ccc(C[C@H](NC(=O)c2ccccc2)C(=O)N[C@H](CO)Cc2ccccc2)cc1.Cl [Y101, N-[N-benzoyl-O-(2-dimethylaminoethyl)-l-tyrosyl]-l-phenylalaninol hydrochloride]	1690 ng·h/mL	1670 ng·h/mL	6280 ng/mL	2370 ng·h/mL	2350 ng·h/mL	15.5 L/kg	0.66 h	258 mL/min/kg	0.682 h	1680 ng·h/mL	1620 ng·h/mL	843 ng/mL	1620 ng·h/mL	1570 ng·h/mL	668 ng/mL	0.313 h	1.11 h	0.25 h	0.998 h	0.706 h	C0 ([1]; i.v. Y101 25 mg/kg alone): 10600 ng/mL; Vd ([1]; i.v. Y101 25 mg/kg alone): 10.6 L/kg; clearance ([1]; i.v. Y101 25 mg/kg alone): 178 mL/min/kg; Vd [3, 7]: 12.5 L/kg; clearance [3, 7]: 207 mL/min/kg; AUC(0-inf) [3, 7]: 2030 ng·h/mL; AUC(0-t) [3, 7]: 2020 ng·h/mL; C0 [3, 7]: 15800 ng/mL; AUC(0-inf) ([3]; i.v. Y101 25 mg/kg alone): 2860 ng·h/mL; AUC(0-t) ([3]; i.v. Y101 25 mg/kg alone): 2840 ng·h/mL; C0 ([3]; i.v. Y101 25 mg/kg alone): 16000 ng/mL; Vd ([3]; i.v. Y101 25 mg/kg alone): 10.2 L/kg; half-life ([3]; i.v. Y101 25 mg/kg alone): 0.798 h; clearance ([3]; i.v. Y101 25 mg/kg alone): 149 mL/min/kg; renal excretion [4]: 2.98 % of the dose
C=C1[C@H](CO)[C@@H](O)C[C@@H]1n1cnc2c(=O)[nH]c(N)nc21 [ETV, entecavir]	6.76 ng·h/mL	6.31 ng·h/mL	19.1 ng/mL			16.4 L/kg	1.28 h	152 mL/min/kg		7.41 ng·h/mL	6.76 ng·h/mL	2.94 ng/mL				0.875 h	1.45 h				AUC(0-inf) ([1]; i.v. ETV 0.06 mg/kg alone): 9.79 ng·h/mL; AUC(0-t) ([1]; i.v. ETV 0.06 mg/kg alone): 9.21 ng·h/mL; C0 ([1]; i.v. ETV 0.06 mg/kg alone): 26.4 ng/mL; Vd ([1]; i.v. ETV 0.06 mg/kg alone): 11.7 L/kg; half-life ([1]; i.v. ETV 0.06 mg/kg alone): 1.28 h; clearance ([1]; i.v. ETV 0.06 mg/kg alone): 107 mL/min/kg; AUC(0-inf) ([2]; oral ETV 0.06 mg/kg alone): 8.49 ng·h/mL; AUC(0-t) ([2]; oral ETV 0.06 mg/kg alone): 8.15 ng·h/mL; Cmax ([2]; oral ETV 0.06 mg/kg alone): 5.54 ng/mL; Tmax ([2]; oral ETV 0.06 mg/kg alone): 0.5 h; half-life ([2]; oral ETV 0.06 mg/kg alone): 1.1 h
CN(C)CCOc1ccc(CC(NC(=O)c2ccccc2)C(=O)O)cc1 (stereo not drawn) [M8]	6150 ng·h/mL	6100 ng·h/mL		5860 ng·h/mL	5830 ng·h/mL		2.65 h		1.93 h	10400 ng·h/mL	10300 ng·h/mL	1980 ng/mL	10200 ng·h/mL	10100 ng·h/mL	2030 ng/mL	1.5 h	3.64 h	2.25 h	3.44 h	3.45 h	Cmax [1, 5]: 2520 ng/mL; Cmax ([1]; i.v. Y101 25 mg/kg alone): 2660 ng/mL; Tmax [1, 5]: 0.438 h; Tmax ([1]; i.v. Y101 25 mg/kg alone): 0.5 h; elevation in AUC value on co-administration of PRO [3, 8]: 163%; increase in Cmax value on co-administration of PRO [3, 8]: 2.6 fold; Tmax [3, 7]: 0.5 h; AUC(0-inf) [3, 7]: 21900 ng·h/mL; AUC(0-t) [3, 7]: 21900 ng·h/mL; Cmax [3, 7]: 10100 ng/mL; AUC(0-inf) ([3]; i.v. Y101 25 mg/kg alone): 8360 ng·h/mL; AUC(0-t) ([3]; i.v. Y101 25 mg/kg alone): 8300 ng·h/mL; Cmax ([3]; i.v. Y101 25 mg/kg alone): 3890 ng/mL; Tmax ([3]; i.v. Y101 25 mg/kg alone): 0.667 h; half-life ([3]; i.v. Y101 25 mg/kg alone): 4.07 h; renal excretion [4]: 27.2 % of the dose
